Test results reported in patent US5614533A, “Substituted pipecolinic acid derivatives as HIV protease inhibitors” (Bio-Mega/Boehringer Ingelheim Research, Inc., priority 1994, dated 1997).

Assays:
[1] = system: HIV (H9/HTLV-IIIB) in C8166 cells; experiment: plaque assay: inhibition of syncytia formation in HIV-infected C8166 cells; type: cell-based; conditions: 72 h, 50% inhibition of syncytia formation
In short: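 C8166 cells (5×10^4/well) infected with 50× TCID50 H9/HTLV-IIIB in HEPES-buffered RPMI 1640 (pH 7.2), 10% FCS, with test compound in triplicate; 72 h at 37°, 5% CO2. Syncytia centers counted by phase-contrast microscopy; EC50 from percent inhibition versus serial dilutions by non-linear regression.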

HIV protease = molecular target: T1, HIV protease (Human immunodeficiency virus type 1 group M subtype B, UniProt P04585); experiment: Recombinant HIV Protease HPLC Assay; type: biochemical; conditions: 37°, 30 min, pH 5.5
T1 construct: HIV protease was expressed in E. coli; made in house; host or cells: E. coli (plasmid pBRT1 prt+)
In short: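 Recombinant protease from E. coli (pBRT1 prt+ construct), purified and diluted 1/38 for use, cleaves the decapeptide substrate VSFNFPQITL-NH2, containing an HIV polyprotein cleavage site. Inhibition of cleavage is monitored by HPLC.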

[2] = Human immunodeficiency virus 1, IIIB, Table V
[3] = Human immunodeficiency virus 1, IIIB, Table VI

Compound | EC50 [1, 2] [nM] | IC50 (HIV protease; Table V) [nM] | EC50 ([1]; Table V) [nM] | EC50 [1, 3] [nM] | IC50 (HIV protease; Table VI) [nM]
CC(C)[C@H](NC(=O)c1ccc2ccccc2n1)C(=O)N[C@@H](Cc1ccccc1)[C@H](O)CN1CC[C@@H](Oc2ccccc2)C[C@H]1C(=O)NC(C)(C)C [Table V, entry 7, N-tert-butyl-1-{2(S)(R)-hydroxy-4-phenyl-3(S)-{{N-(2-quinolylinylcarbonyl)valyl}amino}butyl}-4(R)-phenoxypiperidine-2-carboxamide] | 14 | 3.4 | – | – | –
CC(C)[C@H](NC(=O)c1ccc2ccccc2n1)C(=O)N[C@@H](Cc1ccccc1)[C@H](O)CN1CC[C@@H](SCc2cccnc2)C[C@H]1C(=O)NC(C)(C)C [Table V, entry 8, N-tert-butyl-1-{2(S)(R)-hydroxy-4-phenyl-3(S)-{{N-(2-quinolylinylcarbonyl)valyl}amino}butyl}-4(R)-{(3-pyridinylmethyl)thio}piperidine-2-carboxamide] | 3 | 2.2 | – | – | –
CC(C)[C@H](NC(=O)c1ccc2ccccc2n1)C(=O)N[C@@H](Cc1ccccc1)[C@H](O)CN1CC[C@@H](SCc2ccccn2)C[C@H]1C(=O)NC(C)(C)C [Table V, entry 9, N-tert-butyl-1-{2(S)(R)-hydroxy-4-phenyl-3(S)-{{N-(2-quinolylinylcarbonyl)valyl}amino}butyl}-4(R)-{(2-pyridinylmethyl)thio}piperidine-2-carboxamide] | 5 | 4.2 | – | – | –
CC(C)[C@H](NC(=O)c1ccc2ccccc2n1)C(=O)N[C@@H](Cc1ccccc1)[C@H](O)CN1CC[C@@H](Oc2ncccn2)C[C@H]1C(=O)NC(C)(C)C [Table V, entry 10, N-tert-butyl-1-{2(S)(R)-hydroxy-4-phenyl-3(S)-{{N-(2-quinolylinylcarbonyl)valyl}amino}butyl}-4(R)-(2-pyrimidinyloxy)piperidine-2-carboxamide] | 25 | 3.2 | – | – | –
Cc1cc(C)nc(O[C@@H]2CCN(C[C@@H](O)[C@H](Cc3ccccc3)NC(=O)[C@@H](NC(=O)c3ccc4ccccc4n3)C(C)C)[C@H](C(=O)NC(C)(C)C)C2)n1 [Table V, entry 11, N-tert-butyl-1-{2(S)(R)-hydroxy-4-phenyl-3(S)-{{N-(2-quinolylinylcarbonyl)valyl}amino}butyl}-4(R)-{(4,6-dimethyl-2-pyrimidinyl)oxy}piperidine-2-carboxamide] | 20 | 4 | – | – | –
Cc1ccnc(O[C@@H]2CCN(C[C@@H](O)[C@H](Cc3ccccc3)NC(=O)[C@@H](NC(=O)c3ccc4ccccc4n3)C(C)C)[C@H](C(=O)NC(C)(C)C)C2)n1 [Table V, entry 12, N-tert-butyl-1-{2(S)(R)-hydroxy-4-phenyl-3(S)-{{N-(2-quinolylinylcarbonyl)valyl}amino}butyl}-4(R)-{(4-methyl-2-pyrimidinyl)oxy}piperidine-2-carboxamide] | 44 | 4.5 | – | – | –
Cc1cc(O[C@@H]2CCN(C[C@@H](O)[C@H](Cc3ccccc3)NC(=O)[C@@H](NC(=O)c3ccc4ccccc4n3)C(C)C)[C@H](C(=O)NC(C)(C)C)C2)nc(C)n1 [Table V, entry 13, N-tert-butyl-1-{2(S)(R)-hydroxy-4-phenyl-3(S)-{{N-(2-quinolylinylcarbonyl)valyl}amino}butyl}-4(R)-{(2,6-dimethyl-4-pyrimidinyl)oxy}piperidine-2-carboxamide] | 17 | 3.6 | – | – | –
CC(C)[C@H](NC(=O)c1ccc2ccccc2n1)C(=O)N[C@@H](Cc1ccccc1)C(O)CN1CC[C@@H](S(=O)(=O)c2ccccc2)CC1C(=O)NC(C)(C)C (stereo partly drawn) [Table V, entry 14, N-tert-butyl-1-{2(S)(R)-hydroxy-4-phenyl-3(S)-{{N-(2-quinolylinylcarbonyl)valyl}amino}butyl}-4(R)-(phenylsulfonyl)piperidine-2-carboxamide] | – | 2.9 | 23 | – | –
CC(C)[C@H](NC(=O)c1ccc2ccccc2n1)C(=O)N[C@@H](Cc1ccccc1)[C@H](O)CN1CC[C@@H](Oc2ccc(F)cc2)C[C@H]1C(=O)NC(C)(C)C [Table V, entry 15, N-tert-butyl-1-{2(S)(R)-hydroxy-4-phenyl-3(S)-{{N-(2-quinolylinylcarbonyl)valyl}amino}butyl}-4(R)-{(4-fluorophenyl)oxy}piperidine-2-carboxamide] | 22 | 2.6 | – | – | –
CC(C)[C@H](NC(=O)c1ccc2ccccc2n1)C(=O)N[C@@H](Cc1ccccc1)[C@H](O)CN1CC[C@@H](OCc2ccncc2)C[C@H]1C(=O)NC(C)(C)C [Table V, entry 16, N-tert-butyl-1-{2(S)(R)-hydroxy-4-phenyl-3(S)-{{N-(2-quinolylinylcarbonyl)valyl}amino}butyl}-4(R)-(4-pyridinylmethoxy)piperidine-2-carboxamide] | 22 | 4.2 | – | – | –
CC(C)[C@H](NC(=O)c1ccc2ccccc2n1)C(=O)N[C@@H](Cc1ccccc1)[C@H](O)CN1CC[C@@H](S(=O)(=O)Cc2ccccn2)C[C@H]1C(=O)NC(C)(C)C [Table V, entry 17, N-tert-butyl-1-{2(S)(R)-hydroxy-4-phenyl-3(S)-{{N-(2-quinolylinylcarbonyl)valyl}amino}butyl}-4(R)-{(2-pyridinylmethyl)sulfonyl}piperidine-2-carboxamide] | 33 | 2.4 | – | – | –
CC(C)[C@H](NC(=O)c1ccc2ccccc2n1)C(=O)N[C@@H](Cc1ccccc1)[C@H](O)CN1CC[C@@H](S(=O)(=O)Cc2cccnc2)C[C@H]1C(=O)NC(C)(C)C [Table V, entry 18, N-tert-butyl-1-{2(S)(R)-hydroxy-4-phenyl-3(S)-{{N-(2-quinolylinylcarbonyl)valyl}amino}butyl}-4(R)-{(3-pyridinylmethyl)sulfonyl}piperidine-2-carboxamide] | 67 | 1.8 | – | – | –
CC(C)[C@H](NC(=O)c1ccc2ccccc2n1)C(=O)N[C@@H](Cc1ccccc1)[C@H](O)CN1CC[C@@H](S(=O)(=O)Cc2ccncc2)C[C@H]1C(=O)NC(C)(C)C [Table V, entry 19, N-tert-butyl-1-{2(S)(R)-hydroxy-4-phenyl-3(S)-{{N-(2-quinolylinylcarbonyl)valyl}amino}butyl}-4(R)-{(4-pyridinylmethyl)sulfonyl}piperidine-2-carboxamide] | 73 | 4.6 | – | – | –
CC(C)[C@H](NC(=O)c1ccc2ccccc2n1)C(=O)N[C@@H](Cc1ccccc1)[C@H](O)CN1CC[C@@H](S(=O)(=O)c2ccccn2)C[C@H]1C(=O)NC(C)(C)C [Table V, entry 20, N-tert-butyl-1-{2(S)(R)-hydroxy-4-phenyl-3(S)-{{N-(2-quinolylinylcarbonyl)valyl}amino}butyl}-4(R)-(2-pyridinylsulfonyl)piperidine-2-carboxamide] | 13 | 1.7 | – | – | –
CC(C)[C@H](NC(=O)c1ccc2ccccc2n1)C(=O)N[C@@H](Cc1ccccc1)[C@H](O)CN1CC[C@@H](S(=O)(=O)c2ccncc2)C[C@H]1C(=O)NC(C)(C)C [Table V, entry 21, N-tert-butyl-1-{2(R)-hydroxy-4-phenyl-3(S)-{{N-(2-quinolylinylcarbonyl)valyl}amino}butyl}-4(R)-(4-pyridinylsulfonyl)piperidine-2(S)-carboxamide] | 25 | 1.7 | – | – | –
Cc1cc(S[C@@H]2CCN(C[C@@H](O)[C@H](Cc3ccccc3)NC(=O)[C@@H](NC(=O)c3ccc4ccccc4n3)C(C)C)[C@H](C(=O)NC(C)(C)C)C2)nc(C)n1 [Table V, entry 22, N-tert-butyl-1-{2(R)-hydroxy-4-phenyl-3(S)-{{N-(2-quinolylinylcarbonyl)valyl}amino}butyl}-4(R)-{(2,6-dimethyl-4-pyrimidinyl)thio}piperidine-2(S)-carboxamide] | 11 | 2.4 | – | – | –
Cc1ccnc(S[C@@H]2CCN(C[C@@H](O)[C@H](Cc3ccccc3)NC(=O)[C@@H](NC(=O)c3ccc4ccccc4n3)C(C)C)[C@H](C(=O)NC(C)(C)C)C2)n1 [Table V, entry 23, N-tert-butyl-1-{2(R)-hydroxy-4-phenyl-3(S)-{{N-(2-quinolylinylcarbonyl)valyl}amino}butyl}-4(R)-{(4-methyl-2-pyrimidinyl)thio}piperidine-2(S)-carboxamide] | 16 | 2.8 | – | – | –
CC(C)[C@H](NC(=O)c1ccc2ccccc2n1)C(=O)N[C@@H](Cc1ccccc1)[C@H](O)CN1CC[C@@H](OCc2cccnc2)C[C@H]1C(=O)NC(C)(C)C [Table V, entry 24, N-tert-butyl-1-{2(R)-hydroxy-4-phenyl-3(S)-{{N-(2-quinolylinylcarbonyl)valyl}amino}butyl}-4(R)-(3-pyridinylmethoxy)piperidine-2(S)-carboxamide] | 53 | 3.7 | – | – | –
CC(C)(C)NC(=O)[C@@H]1C[C@H](Sc2ccccc2)CCN1C[C@@H](O)[C@H](Cc1ccccc1)NC(=O)[C@@H](NC(=O)c1ccc2ccccc2n1)C(C)(C)C [Table VI, entry 1, N-tert-butyl-1-{2(R)-hydroxy-4-phenyl-3(S)-{{N-(2-quinolylinylcarbonyl)tert-butylglycyl}amino}butyl}-4(R)-(phenylthio)piperidine-2(S)-carboxamide] | – | – | – | 12 | 3
Cc1cc(C)nc(S[C@@H]2CCN(C[C@@H](O)[C@H](Cc3ccccc3)NC(=O)[C@H](CC(N)=O)NC(=O)c3ccc4ccccc4n3)[C@H](C(=O)NC(C)(C)C)C2)n1 [Table VI, entry 2, N-tert-butyl-1-{2(R)-hydroxy-4-phenyl-3(S)-{{N-(2-quinolylinylcarbonyl)asparaginyl}amino}butyl}-4(R)-{(4,6-dimethyl-2-pyrimidinyl)}thiopiperidine-2(S)-carboxamide] | – | – | – | 42 | 2.2
